Measured values taken from publication PMC12000319, “Proton conductance by human uncoupling protein 1 is inhibited by purine and pyrimidine nucleotides” (The EMBO Journal, 2025).
Values joined by “and” are separate entries in the source; they are usually repeats but may differ in a detail not shown here. Equal values may be shown once. Read-outs that look alike come from different tables or passages of the source.

Legend:
UCP1 [1] = molecular target: T1, UCP1 (Homo sapiens, UniProt P25874); experiment: Differential scanning fluorimetry (nanoDSF) thermal stability shift assay; format: binding; details: for ΔTm at 1000 µM: read-out: thermal shift (ΔTm)
T1 construct: His8 (N, cleaved yes); Factor Xa protease cleavage site (N, cleaved yes); made in house; host or cells: Saccharomyces cerevisiae strain W303.1B
T1 sequence (P25874 1-307): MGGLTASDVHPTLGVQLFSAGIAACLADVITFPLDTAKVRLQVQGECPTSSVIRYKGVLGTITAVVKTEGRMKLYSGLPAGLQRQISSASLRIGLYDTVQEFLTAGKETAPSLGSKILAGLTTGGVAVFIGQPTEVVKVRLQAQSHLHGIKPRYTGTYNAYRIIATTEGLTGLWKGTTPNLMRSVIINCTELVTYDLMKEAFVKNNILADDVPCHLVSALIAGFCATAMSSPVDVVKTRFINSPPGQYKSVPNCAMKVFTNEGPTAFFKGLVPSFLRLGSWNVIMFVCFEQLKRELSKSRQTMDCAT

human DIC (SLC25A10) = molecular target: T2, human DIC (SLC25A10) (Homo sapiens, UniProt Q9UBX3); experiment: as above; format: binding; details: 1 mM nucleotide, pH 6.0, single repeats (source data Fig. 4A)
T2 construct: His8 (N, cleaved yes); Factor Xa protease cleavage site (N, cleaved yes); made in house; host or cells: Saccharomyces cerevisiae protease-deficient strain BJ2186
T2 sequence (Q9UBX3 1-287): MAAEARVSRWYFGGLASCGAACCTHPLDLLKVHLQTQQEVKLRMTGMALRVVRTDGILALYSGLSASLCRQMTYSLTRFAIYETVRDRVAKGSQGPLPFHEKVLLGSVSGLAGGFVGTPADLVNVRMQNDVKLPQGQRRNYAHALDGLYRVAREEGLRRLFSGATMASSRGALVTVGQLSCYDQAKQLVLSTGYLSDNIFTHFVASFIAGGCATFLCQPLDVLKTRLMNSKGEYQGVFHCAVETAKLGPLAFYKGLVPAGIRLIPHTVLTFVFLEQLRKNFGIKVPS
Excerpt: UCP1 is phylogenetically related to mitochondrial dicarboxylate carriers, gaining thermogenic properties as a later evolutionary development (Hughes et al, [2009]; Robinson et al, [2008]). The mitochondrial dicarboxylate carrier (DIC, SLC25A10) and oxoglutarate carrier (OGC, SLC25A11) are most closely related to UCP1 (Gaudry et al, [2019]; Hughes et al, [2009]) and share many residues involved in nucleotide binding in UCP1, such as the arginine triplet at the contact points, R92 and Q85 (Jones et al, [2024]). Given the similarity of the central cavity of UCP1, OGC and DIC, we tested whether the dicarboxylate carriers have the ability to bind nucleotides. For this purpose, we purified human DIC and OGC, and tested whether nucleotides were able to generate a thermostability shift, as observed for their physiological substrates (Pyrihová et al, [2024]). However, all tested nucleotides caused a negligible shift with both DIC or OGC at all pH values tested between 6.0 and 8.0 (Fig. 4A; Appendix Fig. S5). Thus, despite having many residues in common (Fig. 4B–D), UCP1 has evolved to have a few specific residues that allow high-affinity binding of nucleotides without a strong selection for nucleobase.
Differential scanning fluorimetry (nanoDSF) (Alexandrov et al, [2008]) was carried out with 2 µg UCP1, DIC or OGC protein (100 mM MES/HEPES, pH range 6.0–8.0, 25 mM NaCl, 1 mM TCEP, 0.01% lauryl maltose neopentyl glycol and 0.01 mg/mL tetraoleoyl cardiolipin) and, when required, 1 mM nucleotide, as indicated. The proteins have the following number of tryptophans: UCP1 (two); OGC (two); DIC (one). The samples were loaded into nanoDSF-grade standard glass capillaries. The temperature was increased by […] every minute from 25 to 95 °C, the intrinsic fluorescence was measured in a Prometheus NT.48 nanoDSF device, and the apparent Tm was calculated with the PR.ThermControl software (NanoTemper Technologies).

UCP1 [2] = molecular target: T1, UCP1; experiment: Isothermal titration calorimetry of nucleotide binding; set-up: isotherm data point (enthalpy change per injection): unit not given here; details: for isotherm data point (enthalpy change per injection): representative isotherm;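 as to all read-outs here: purified human UCP1 in cacodylate buffer with lauryl maltose neopentyl glycol and cardiolipin, titrated with nucleotides, isotherms fitted by one-site model yielding ΔH, Kd and stoichiometry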
UCP1 [3] = system: UCP1; set-up: method as in Heaton and Nicholls, 1977; Divakaruni et al, 2012; details: whole mitochondria; ref Heaton and Nicholls, 1977; Divakaruni et al, 2012; cited from earlier work
UCP1 [4] = molecular target: T1, UCP1; experiment: Liposome reconstitution and proton conductance assay (pyranine fluorescence); format: biochemical; details: UCP1 proteoliposomes, 200 µM oleic acid alone, 2.5 µM valinomycin; single reconstitutions
[5] = molecular target: T3, human uncoupling protein 1 (human, UniProt P25874); experiment: cryo-EM structure; UCP1, PMb65 and PMb71 mixed stoichiometrically, overnight at 4 °C; complex separated by SEC (20 mM MES pH 6.0, 150 mM NaCl, 0.02% lauryl maltose neopentyl glycol, 0.02 mg/mL tetraoleoyl cardiolipin, 1 mM TCEP); 2 mM UTP and 2 mM D-maltose added; 3.03 Å; details: both partners purified
T3 construct: human uncoupling protein 1 (UCP1, SLC25A7), Uniprot P25874; Detergent-solubilised, with tetraoleoyl cardiolipin; also called UCP1; SLC25A7; source: Saccharomyces cerevisiae W303.1B, purified from mitochondria (Ni Sepharose, on-column Factor Xa cleavage); not shown: His8, N-terminal, cleaved

Molecule: Nc1ccn(C2OC(COP(=O)(O)OP(=O)(O)OP(=O)(O)O)C(O)C2O)c(=O)n1 (centres unmarked) [CTP]
- temperature shift (ΔTm) (UCP1 [1]; 1 mM nucleotide, pH 6.0, detergent-solubilised UCP1, mean of three biological repeats): 12.5 °C
- ΔTm at 1000 µM (UCP1 [1]; pH 6, 1 mM nucleotide, pH 6.0, single repeats (source data Fig. 1D)): 12.3 °C
- ΔTm at 1000 µM (UCP1 [1]; pH 6.5, 1 mM nucleotide, pH 6.5, single repeats (source data Fig. 1D)): 7.9 °C
- ΔTm at 1000 µM (UCP1 [1]; pH 7, 1 mM nucleotide, pH 7.0, single repeats (source data Fig. 1D)): 4.4 °C
- change in apparent melting temperature (ΔTm) of hDIC (human DIC (SLC25A10)): 0.0
- binding affinity to UCP1 (in words) (UCP1 [2]; ITC): lowest affinity
- Kd (UCP1 [2]; ITC, pH 6.0, 20 °C, mean ± standard deviation of three biological repeats (Fig. 2A-E)): 4.85 ± 0.69 µM
- Kd (UCP1 [2]; ITC, single biological repeats (source data Fig. 2F)): 5.47 µM and 4.96 µM and 4.11 µM
- isotherm data point (enthalpy change per injection) (UCP1 [2]; Molar ratio (Nucleotide/UCP) 0.120417, pH 6.0, 20 °C): -22.2743
- isotherm data point (enthalpy change per injection) (UCP1 [2]; Molar ratio (Nucleotide/UCP) 0.181226, pH 6.0, 20 °C): -21.186
- isotherm data point (enthalpy change per injection) (UCP1 [2]; Molar ratio (Nucleotide/UCP) 0.242439, pH 6.0, 20 °C): -19.9722
- isotherm data point (enthalpy change per injection) (UCP1 [2]; Molar ratio (Nucleotide/UCP) 0.304059, pH 6.0, 20 °C): -20.0539
- isotherm data point (enthalpy change per injection) (UCP1 [2]; Molar ratio (Nucleotide/UCP) 0.366087, pH 6.0, 20 °C): -20.6988
- isotherm data point (enthalpy change per injection) (UCP1 [2]; Molar ratio (Nucleotide/UCP) 0.428528, pH 6.0, 20 °C): -18.255
- isotherm data point (enthalpy change per injection) (UCP1 [2]; Molar ratio (Nucleotide/UCP) 0.491383, pH 6.0, 20 °C): -16.7607
- isotherm data point (enthalpy change per injection) (UCP1 [2]; Molar ratio (Nucleotide/UCP) 0.554656, pH 6.0, 20 °C): -16.5202
- isotherm data point (enthalpy change per injection) (UCP1 [2]; Molar ratio (Nucleotide/UCP) 0.618348, pH 6.0, 20 °C): -14.6191
- isotherm data point (enthalpy change per injection) (UCP1 [2]; Molar ratio (Nucleotide/UCP) 0.682464, pH 6.0, 20 °C): -13.3617
- isotherm data point (enthalpy change per injection) (UCP1 [2]; Molar ratio (Nucleotide/UCP) 0.747006, pH 6.0, 20 °C): -10.6677
- isotherm data point (enthalpy change per injection) (UCP1 [2]; Molar ratio (Nucleotide/UCP) 0.811976, pH 6.0, 20 °C): -10.8499
- isotherm data point (enthalpy change per injection) (UCP1 [2]; Molar ratio (Nucleotide/UCP) 0.877378, pH 6.0, 20 °C): -10.2913
- isotherm data point (enthalpy change per injection) (UCP1 [2]; Molar ratio (Nucleotide/UCP) 0.943214, pH 6.0, 20 °C): -8.027
- isotherm data point (enthalpy change per injection) (UCP1 [2]; Molar ratio (Nucleotide/UCP) 1.00949, pH 6.0, 20 °C): -6.97
- isotherm data point (enthalpy change per injection) (UCP1 [2]; Molar ratio (Nucleotide/UCP) 1.0762, pH 6.0, 20 °C): -6.038
- isotherm data point (enthalpy change per injection) (UCP1 [2]; Molar ratio (Nucleotide/UCP) 1.14336, pH 6.0, 20 °C): -5.024
- isotherm data point (enthalpy change per injection) (UCP1 [2]; Molar ratio (Nucleotide/UCP) 1.21096, pH 6.0, 20 °C): -4.446
- isotherm data point (enthalpy change per injection) (UCP1 [2]; Molar ratio (Nucleotide/UCP) 1.27901, pH 6.0, 20 °C): -2.802
- isotherm data point (enthalpy change per injection) (UCP1 [2]; Molar ratio (Nucleotide/UCP) 1.34751, pH 6.0, 20 °C): -2.027
- isotherm data point (enthalpy change per injection) (UCP1 [2]; Molar ratio (Nucleotide/UCP) 1.41647, pH 6.0, 20 °C): -1.98
- isotherm data point (enthalpy change per injection) (UCP1 [2]; Molar ratio (Nucleotide/UCP) 1.48589, pH 6.0, 20 °C): -0.1226
- isotherm data point (enthalpy change per injection) (UCP1 [2]; Molar ratio (Nucleotide/UCP) 1.55577, pH 6.0, 20 °C): -0.8262
- isotherm data point (enthalpy change per injection) (UCP1 [2]; Molar ratio (Nucleotide/UCP) 1.62611, pH 6.0, 20 °C): -0.604
- isotherm data point (enthalpy change per injection) (UCP1 [2]; Molar ratio (Nucleotide/UCP) 1.69692, pH 6.0, 20 °C): -1.2037
- isotherm data point (enthalpy change per injection) (UCP1 [2]; Molar ratio (Nucleotide/UCP) 1.76819, pH 6.0, 20 °C): -0.3877
- isotherm data point (enthalpy change per injection) (UCP1 [2]; Molar ratio (Nucleotide/UCP) 1.83995, pH 6.0, 20 °C): 0.4921
- isotherm data point (enthalpy change per injection) (UCP1 [2]; Molar ratio (Nucleotide/UCP) 1.91217, pH 6.0, 20 °C): -0.1525
- isotherm data point (enthalpy change per injection) (UCP1 [2]; Molar ratio (Nucleotide/UCP) 1.98488, pH 6.0, 20 °C): -0.1288
- competition with GDP binding (UCP1 [3]): unable to displace the binding of GDP

Molecule: CCCCCCCC/C=C\CCCCCCCC(=O)O [OA, oleic acid]
- Proton influx rate (UCP1 [4]): 908.51 nmol H+/min and 699.43 nmol H+/min and 609.97 nmol H+/min

B1: Pro-macrobody PMb71 (VHH)
VHH: QVQLVESGGGLVQAGDSLRLSCAASGLTLKNYAMGWFRQAPGKEHEFVAVISWSGSGTSYADSVEGRFTISRDNAKNTAFLQMSSLKPEDTAVYYCAARDGGYGSRWPDEYTYWGQGTQVTVPP
notes: llama nanobody CA9871; Expressed from the vector pBXNPHM3 (Addgene 110099); also called CA9871; source: E. coli MC1061, purified (Ni-NTA, 3C cleavage, Strep-Tactin XT); not shown: His-tagged MBP, N-terminal, cleaved
- binding result [5]: binds

B2: Pro-macrobody PMb65 (VHH)
VHH: QVQLVESGGGLVQAGGSLRLSCAPSGRTSSTYTMGWFRQAPGKEREFVAAISWTGTPYYADSVKGRFTISRDNAKNTVYLQMNSLKPEDTAVYYCAAARPGLFIFVSDYARTAKYDYWGQGTQVTVPP
notes: llama nanobody CA9865; Expressed from the vector pBXNPHM3 (Addgene 110099); also called CA9865; source: E. coli MC1061, purified (Ni-NTA, 3C cleavage, Strep-Tactin XT); not shown: His-tagged MBP, N-terminal, cleaved
- binding result [5]: binds
